Counter-ions that a name gives are not always drawn.
How the values were obtained:
vertebral blood flow [1] = assay: Activity of increasing cerebral blood flow (vertebral blood flow), intravenous administration in anesthetized dogs; type: in vivo; details: Canis lupus familiaris; 0.03 to 0.3 mg/kg intravenous, anesthetized mongrel dogs; calculated from the regression line; read-out: VBF-ED50 (dose which increased the cerebral blood flow by 50%)
vertebral blood flow [2] = assay: as above; type: in vivo; details: 0.3 mg/kg, injected into femoral vein, anesthetized mongrel dogs
Method: The activity of increasing cerebral blood flow was measured by using the amount of vertebral blood flow as an index. Mongrel dogs of either sex (body weight 11 to 14 kg; four per group) were anesthetized with sodium pentobarbital (30 mg/kg, by intravenous injection), and the right vertebral artery was isolated from the surrounding tissues. A flow probe was attached to it and led to an electromagnetic flow meter (MFV-2100 made by Nihon Kohden Co., Ltd.). The amount of blood flow was periodically measured [see Meth and Find Exptl Clin Pharmacol, 3 (6), 397 (1981)]. Each of the test compounds was dissolved in a 2% tartaric acid solution containing 20% dimethylacetamide, and injected into the right femoral vein.
Furthermore, each of the test compounds was administered in a dose of 0.3 mg/kg, and increases (%) in vertebral blood flow were determined 1, 5, 10 and 20 minutes after the administration.

in vivo = details: mouse, oral, ddY-strain male mice, fasted 24 hours, deaths during seven days, Weil method, read-out: Acute toxicity LD50
Method: ddY-strain male mice (body weight 18 to 22 g; five per group) were caused to fast 24 hours. Then, each of the test compounds was administered orally, and acute toxicity values (LD50) were determined.
Each of the compounds was dissolved or suspended in a 2% tartaric acid solution containing 20% of dimethylacetamide, and orally administered to the animals. From the number of animals which died during seven days, the LD50 values were calculated by using the Weil method.

vertebral blood flow [3] = assay: Activity to increase cerebral blood flow (vertebral blood flow), intraduodenal administration in dogs; type: in vivo; details: 1 mg/kg intraduodenal, mongrel dogs
Method: The activity of compound A of the invention to increase cerebral blood flow was examined by intraduodenal administration.
Compound A was dissolved in a 2% tartaric acid solution containing 20% dimethylacetamide, and administered intraduodenally to mongrel dogs of either sex (body weight 11-18 kg, five per group) in a dose of 1 mg/kg.
At 10, 30, 60, 120, 180 and 240 minutes after the administration, the increase (%) of vertebral blood flow was measured in the same way as in Test Example 1.

[4] = 10 minutes after administration
[5] = 20 minutes after administration

| Structure (SMILES) | ED50 (vertebral blood flow [1]) [mg/kg] | Increase (%) in vertebral blood flow (mean ± standard error) (vertebral blood flow [2]; 1 minute after administration) [%] | Increase (%) in vertebral blood flow (mean ± standard error) (vertebral blood flow [2]; 5 minutes after administration) [%] | Increase (%) in vertebral blood flow (mean ± standard error) (vertebral blood flow [2]; [4]) [%] | Increase (%) in vertebral blood flow (mean ± standard error) (vertebral blood flow [2]; [5]) [%] | LD50 at 168 h (in vivo) [mg/kg] | Increase (%) of vertebral blood flow (mean ± standard error) (vertebral blood flow [3]; [4]) [%] | Increase (%) of vertebral blood flow (mean ± standard error) (vertebral blood flow [3]; 30 minutes after administration) [%] | Increase (%) of vertebral blood flow (mean ± standard error) (vertebral blood flow [3]; 60 minutes after administration) [%] | Increase (%) of vertebral blood flow (mean ± standard error) (vertebral blood flow [3]; 120 minutes after administration) [%] | Increase (%) of vertebral blood flow (mean ± standard error) (vertebral blood flow [3]; 180 minutes after administration) [%] | Increase (%) of vertebral blood flow (mean ± standard error) (vertebral blood flow [3]; 240 minutes after administration) [%] |
| --- | --- | --- | --- | --- | --- | --- | --- | --- | --- | --- | --- | --- |
| COc1ccc(C=CCN2CCN(C(c3ccccc3)c3ccccc3)CC2)c(OC)c1OC.Cl.Cl [B, 1-Benzhydryl-4-(2,3,4-trimethoxycinnamyl) piperazine dihydrochloride] | 0.12 | 76 ± 14 | 58 ± 12 | 41 ± 7 | 26 ± 4 | 841 |  |  |  |  |  |  |
| COc1ccc(C=CCN2CCN(C(c3ccc(F)cc3)c3ccc(F)cc3)CC2)c(OC)c1.O=C(O)/C=C/C(=O)O [C, 1-[Bis(4-fluorophenyl)methyl]-4-(2,4-dimethoxycinnamyl)piperazine fumarate] | 0.08 | 83 ± 12 | 92 ± 10 | 71 ± 7 | 50 ± 7 | 102 |  |  |  |  |  |  |
| C(=Cc1ccccc1)CN1CCN(C(c2ccccc2)c2ccccc2)CC1 [Cinnarizine, reference compound] |  | 40 ± 10 | 5 ± 4 | 2 ± 2 | 2 ± 4 |  |  |  |  |  |  |  |
| COc1ccc(C=CCN2CCN(C(c3ccc(F)cc3)c3ccc(F)cc3)CC2)c(OC)c1OC.Cl.Cl [Compound A, 1-[Bis(4-fluorophenyl)methyl]-4-(2,3,4-trimethoxycinnamyl)piperazine dihydrochloride] | 0.06 | 107 ± 17 | 137 ± 39 | 134 ± 40 | 120 ± 38 | 185 | 6.2 ± 1.8 | 51.0 ± 18.6 | 149.3 ± 48.0 | 150.9 ± 38.2 | 98.8 ± 24.2 | 55.1 ± 17.2 |
| COc1ccc(C=CCN2CCN(C(c3ccccc3)c3ccccc3)CC2)c(OC)c1.O=C(O)/C=C/C(=O)O [D, 1-Benzhydryl-4-(2,4-dimethoxycinnamyl) piperazine fumarate] | 0.18 | 66 ± 11 | 51 ± 10 | 27 ± 7 | 18 ± 6 | 773 |  |  |  |  |  |  |
| Fc1ccc(C(c2ccc(F)cc2)N2CCN(CC=Cc3ccccc3)CC2)cc1 [Flunarizine dihydrochloride, reference compound] | > 0.3 | 53 ± 20 | 20 ± 12 | 11 ± 7 | 10 ± 6 |  |  |  |  |  |  |  |

— patent publication US4703048A, “Novel 1-benzhydryl-4-cinnamylpiperazine derivatives, and pharmaceutical compositions comprising said compounds as active ingredient for treating a cerebrovascular disease” (Kanebo Ltd., priority 1985, dated 1987)
